Assay results as given in patent EP0973746B1, “SUBSTITUTED 3-CYANO QUINOLINES” (Wyeth Holdings Corporation, priority 1997, dated 1998).
pIC50: −log10 of the molar value. Values after ≈ are worked out from the molar mass of the structure shown. Read-outs that look alike come from different tables or passages of the source.

How the values were obtained:
A431 [1] = assay: Inhibition of cell growth by incorporation of [3H]-thymidine, A431; type: cell-based, human; settings: [3H]-thymidine incorporation, A431, read-out: IC50 A431
NEU-3T3 = assay: Inhibition of cell growth by incorporation of [3H]-thymidine, Neu-3T3; type: cell-based, mouse; settings: [3H]-thymidine incorporation
Protocol: (§1) Representative compounds of this invention were evaluated for their ability to inhibit the growth of the cell lines described below in vitro. The inhibition is quantitated by measuring the decrease in the incorporation of radio-labeled thymidine when the cells are grown in the presence of the inhibitor. […] Cells were routinely grown in a humidified incubator in 5% CO2 in air.
(§2) Cells were seeded at 10,000 cells/well in 96 well plates in complete media and allowed to grow to log phase. At this stage the complete media was replaced with media containing 0.5% FBS (for cells growing in 10% FBS) or media lacking epidermal growth factor (EGF) (for cells growing in serum free media). […] Media with test compound was then removed and complete media was added back. The cells were allowed to grow for 18 hours. This is followed by incubation in [^3H]thymidine (1mCi/ml in serum/EGF media) for 4 hours. Cells were lysed in 0.5 M NaOH for at least 30 min at 37°C and radioactivity analyzed.
(§3) The % inhibition of the compound evaluated was determined for at least three different concentrations and the IC50 value evaluated from the dose response curve. […] CPM(control) is in units of counts per minute and is a number expressing the amount of [^3H]thymidine incorporated onto the DNA when cells are grown in the absence of test compound as measured by liquid scintillation counting.

NHEK = assay: Inhibition of cell growth by incorporation of [3H]-thymidine, NHEK; type: cell-based, human; settings: [3H]-thymidine incorporation, read-out: IC50 NHEK
Protocol: as §1, §2, §3

SKBR3 [2] = assay: Inhibition of cell growth by incorporation of [3H]-thymidine, SKBR3; type: cell-based, human
Protocol: as §1, §2, §3

HTB161 = assay: Inhibition of cancer cell growth as measured by cell number, HTB161; type: cell-based; settings: Homo sapiens; cell number, Sulforhodamine B, 48 hours exposure; Table 4; read-out: IC50 HTB161
A27805 = assay: Inhibition of cancer cell growth as measured by cell number, A27805; type: cell-based; settings: Homo sapiens; cell number, Sulforhodamine B, 48 hours exposure; Table 4; read-out: IC50 A27805
A2780DDP = assay: Inhibition of cancer cell growth as measured by cell number, A2780DDP; type: cell-based; settings: Homo sapiens; cell number, Sulforhodamine B, 48 hours exposure; Table 4; read-out: IC50 A2780DDP
MIP = assay: Inhibition of cancer cell growth as measured by cell number, MIP; type: cell-based; settings: Homo sapiens; cell number, Sulforhodamine B, 48 hours exposure; Table 4; read-out: IC50 MIP
SW620 = assay: Inhibition of cancer cell growth as measured by cell number, SW620; type: cell-based, human; settings: Homo sapiens, SW-620, 48 h, cell number, Sulforhodamine B, 48 hours exposure, read-out: IC50 SW620;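 further: SW620 was included as a cell line with little or no EGFR or HER2/neu expression, in contrast to receptor-overexpressing lines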
Description: (§4) The cell lines were chosen since they overexpressed epidermal growth factor receptor (EGFR) (i.e. A431) or HER2/neu (SKBR3), or had little to no expression of the these receptors (SW620, LOX, MCF7).

COLO205 = assay: Inhibition of cancer cell growth as measured by cell number, COLO205; type: cell-based; settings: Homo sapiens, COLO 205; cell number, Sulforhodamine B, 48 hours exposure; Table 4; read-out: IC50 COLO205
CX1 = assay: Inhibition of cancer cell growth as measured by cell number, CX1; type: cell-based; settings: Homo sapiens, CX-1; cell number, Sulforhodamine B, 48 hours exposure; Table 4; read-out: IC50 CX1
CACO2 = assay: Inhibition of cancer cell growth as measured by cell number, CACO2; type: cell-based; settings: Homo sapiens, Caco-2; cell number, Sulforhodamine B, 48 hours exposure; Table 5; read-out: IC50 CACO2
HCT15 = assay: Inhibition of cancer cell growth as measured by cell number, HCT15; type: cell-based; settings: Homo sapiens, HCT-15; cell number, Sulforhodamine B, 48 hours exposure; Table 5; read-out: IC50 HCT15
LS174T = assay: Inhibition of cancer cell growth as measured by cell number, LS174T; type: cell-based; settings: Homo sapiens, cell number, Sulforhodamine B, 48 hours exposure, Table 5, read-out: IC50 LS174T
SW948 = assay: Inhibition of cancer cell growth as measured by cell number, SW948; type: cell-based; settings: Homo sapiens, SW948; cell number, Sulforhodamine B, 48 hours exposure; Table 5; read-out: IC50 SW948
CCL228 = assay: Inhibition of cancer cell growth as measured by cell number, CCL228; type: cell-based; settings: Homo sapiens; cell number, Sulforhodamine B, 48 hours exposure; Table 5; read-out: IC50 CCL228
MCF7 = assay: Inhibition of cancer cell growth as measured by cell number, MCF7; type: cell-based, human; settings: Homo sapiens, MCF7, 48 h, cell number, Sulforhodamine B, 48 hours exposure, read-out: IC50 MCF7;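 further: MCF7 was included as a line with little or no EGFR or HER2/neu expression, in contrast to the receptor-overexpressing lines of the panel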
Description: as §4

B7474 = assay: Inhibition of cancer cell growth as measured by cell number, B7474; type: cell-based; settings: Homo sapiens; cell number, Sulforhodamine B, 48 hours exposure; Table 6; read-out: IC50 B7474
T47D = assay: Inhibition of cancer cell growth as measured by cell number, T47D; type: cell-based; settings: Homo sapiens, cell number, Sulforhodamine B, 48 hours exposure, Table 6, read-out: IC50 T47D
LX1 = assay: Inhibition of cancer cell growth as measured by cell number, LX1; type: cell-based; settings: Homo sapiens, LX-1; cell number, Sulforhodamine B, 48 hours exposure; Table 6; read-out: IC50 LX1
A549 = assay: Inhibition of cancer cell growth as measured by cell number, A549; type: cell-based; settings: Homo sapiens, A549; cell number, Sulforhodamine B, 48 hours exposure; Table 6; read-out: IC50 A549
LOX = assay: Inhibition of cancer cell growth as measured by cell number, LOX; type: cell-based, human; settings: Homo sapiens, LOX, 48 h, cell number, Sulforhodamine B, 48 hours exposure, read-out: IC50 LOX;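 further: LOX cells served as a line with low or absent EGFR and HER2/neu expression, in contrast to receptor-overexpressing lines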
Description: as §4

A431 [3] = assay: Inhibition of cancer cell growth as measured by cell number, A431; type: cell-based, human; settings: Homo sapiens, A-431, 48 h, cell number, Sulforhodamine B, 48 hours exposure, read-out: IC50 A431;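 further: human A431 line, picked because it overexpresses epidermal growth factor receptor (EGFR)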
Description: as §4

NEC = assay: Inhibition of cancer cell growth as measured by cell number, NEC; type: cell-based; settings: Homo sapiens; cell number, Sulforhodamine B, 48 hours exposure; Table 6; read-out: IC50 NEC
DU145 = assay: Inhibition of cancer cell growth as measured by cell number, DU145; type: cell-based; settings: Homo sapiens, DU-145; cell number, Sulforhodamine B, 48 hours exposure; Table 7; read-out: IC50 DU145
PC3 = assay: Inhibition of cancer cell growth as measured by cell number, PC3; type: cell-based; settings: Homo sapiens, PC-3; cell number, Sulforhodamine B, 48 hours exposure; Table 7; read-out: IC50 PC3
LNCAP = assay: Inhibition of cancer cell growth as measured by cell number, LNCAP; type: cell-based; settings: Homo sapiens, cell number, Sulforhodamine B, 48 hours exposure, Table 7, read-out: IC50 LNCAP
HL60 = assay: Inhibition of cancer cell growth as measured by cell number, HL60; type: cell-based; settings: Homo sapiens, HL-60; cell number, Sulforhodamine B, 48 hours exposure; Table 7; read-out: IC50 HL60
CCRF-CFM = assay: Inhibition of cancer cell growth as measured by cell number, CCRF-CFM; type: cell-based; settings: Homo sapiens; cell number, Sulforhodamine B, 48 hours exposure; Table 7; read-out: IC50 CCRF-CFM
SKBR3 [4] = assay: Inhibition of cancer cell growth as measured by cell number, SKBR3; type: cell-based, human; settings: Homo sapiens, SK-BR-3; cell number, Sulforhodamine B, 48 hours exposure; Table 8; read-out: IC50 SKBR3;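 further: SK-BR-3 cells were selected as a line overexpressing HER2/neu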
Description: as §4

[5] = molecular target: epidermal growth factor receptor kinase (Homo sapiens, UniProt P00533); assay: biochemical
Sequence of epidermal growth factor receptor kinase (P00533 25-1210): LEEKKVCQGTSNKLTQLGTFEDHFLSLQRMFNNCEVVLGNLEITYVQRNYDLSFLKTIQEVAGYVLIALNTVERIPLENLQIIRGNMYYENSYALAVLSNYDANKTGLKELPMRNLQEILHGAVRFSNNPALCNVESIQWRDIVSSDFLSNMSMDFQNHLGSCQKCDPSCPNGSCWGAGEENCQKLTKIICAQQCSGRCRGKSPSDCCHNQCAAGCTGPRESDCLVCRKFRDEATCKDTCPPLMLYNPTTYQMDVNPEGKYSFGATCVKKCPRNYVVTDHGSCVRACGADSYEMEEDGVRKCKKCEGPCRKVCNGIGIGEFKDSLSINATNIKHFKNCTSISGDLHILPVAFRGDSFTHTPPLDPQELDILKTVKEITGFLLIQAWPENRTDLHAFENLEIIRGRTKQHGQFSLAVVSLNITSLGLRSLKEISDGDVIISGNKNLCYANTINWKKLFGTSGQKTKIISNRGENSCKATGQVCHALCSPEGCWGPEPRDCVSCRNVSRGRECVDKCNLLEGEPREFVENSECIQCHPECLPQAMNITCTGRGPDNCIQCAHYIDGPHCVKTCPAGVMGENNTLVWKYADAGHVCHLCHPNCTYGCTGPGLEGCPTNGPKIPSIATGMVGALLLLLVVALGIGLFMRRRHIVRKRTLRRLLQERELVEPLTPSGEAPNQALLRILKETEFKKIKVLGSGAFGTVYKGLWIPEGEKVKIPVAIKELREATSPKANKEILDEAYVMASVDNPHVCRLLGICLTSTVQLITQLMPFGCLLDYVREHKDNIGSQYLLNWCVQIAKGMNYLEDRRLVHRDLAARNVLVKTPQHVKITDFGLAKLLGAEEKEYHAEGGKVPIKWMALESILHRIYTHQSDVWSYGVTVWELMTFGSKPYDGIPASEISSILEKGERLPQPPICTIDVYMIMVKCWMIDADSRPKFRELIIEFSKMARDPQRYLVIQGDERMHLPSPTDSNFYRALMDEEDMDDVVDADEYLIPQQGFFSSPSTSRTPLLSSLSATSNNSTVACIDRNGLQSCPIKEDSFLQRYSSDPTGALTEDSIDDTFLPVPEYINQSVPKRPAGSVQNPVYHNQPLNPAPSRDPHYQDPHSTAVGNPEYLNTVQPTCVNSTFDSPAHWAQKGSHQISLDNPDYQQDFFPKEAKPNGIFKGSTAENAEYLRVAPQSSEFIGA

With `CCOC(=O)c1cnc2cc(OC)c(OC)cc2c1O` [Example 26, 3-Carbethoxy-4-hydroxy-6.7-dimethoxyquinoline] the pIC50 (A431 [1]) was 7.00, the pIC50 (NEU-3T3) was < 4.30 and the pIC50 (NHEK) was 6.40. The pIC50 (SKBR3 [2]; [3H]-thymidine incorporation) was < 4.30.

In the case of `COc1cc2ncc(C#N)c(Nc3cccc(Br)c3)c2cc1OC` [Example 31, 4-[(3-Bromophenyl)amino]-6,7-dimethoxy-3-quinolinecarbonitrile], the pIC50 (A431 [1]; Homo sapiens, A-431) was 6.70, the pIC50 (NHEK; Homo sapiens) was 8.52 and the pIC50 (SKBR3 [2]; Homo sapiens, SK-BR-3, [3H]-thymidine incorporation) was 4.60. It also gave an IC50 (HTB161) of 0.793 µg/mL (≈ 2.06 µM), an IC50 (A27805) of 2.03 µg/mL (≈ 5.28 µM) and an IC50 (A2780DDP) of 1.17 µg/mL (≈ 3.03 µM). The IC50 (MIP) was 0.748 µg/mL (≈ 1.95 µM), the IC50 (SW620; Table 4) was 4.54 µg/mL (≈ 11.8 µM) and the IC50 (SW620; Table 8) was 0.82 µg/mL (≈ 2.13 µM). It also gave an IC50 (COLO205) of 3.1 µg/mL (≈ 8.06 µM), an IC50 (CX1) of 0.97 µg/mL (≈ 2.52 µM) and an IC50 (CACO2) of 0.925 µg/mL (≈ 2.41 µM). It also gave an IC50 (HCT15) of 0.727 µg/mL (≈ 1.89 µM), an IC50 (LS174T) of 0.885 µg/mL (≈ 2.3 µM) and an IC50 (SW948) of 5.48 µg/mL (≈ 14.3 µM). It also gave an IC50 (CCL228) of 4.91 µg/mL (≈ 12.8 µM), an IC50 (MCF7; Table 5) of 5.66 µg/mL (≈ 14.7 µM) and an IC50 (MCF7; Table 8) of 6.04 µg/mL (≈ 15.7 µM). For the same compound, the IC50 (B7474) was 1.58 µg/mL (≈ 4.1 µM), the IC50 (T47D) was 3.33 µg/mL (≈ 8.67 µM) and the IC50 (LX1) was 6.88 µg/mL (≈ 17.9 µM). For the same compound, the IC50 (A549) was 2.27 µg/mL (≈ 5.91 µM), the IC50 (LOX; Table 6) was 0.871 µg/mL (≈ 2.27 µM) and the IC50 (LOX; Table 8) was 1.65 µg/mL (≈ 4.29 µM). For the same compound, the IC50 (A431 [3]; Table 6) was 0.434 µg/mL (≈ 1.13 µM), the IC50 (A431 [3]; Table 8) was 0.1 µg/mL (≈ 0.26 µM) and the IC50 (NEC) was 2.23 µg/mL (≈ 5.81 µM). The IC50 (DU145) was 0.585 µg/mL (≈ 1.52 µM), the IC50 (PC3) was 5.16 µg/mL (≈ 13.4 µM) and the IC50 (LNCAP) was 0.772 µg/mL (≈ 2.01 µM). For the same compound, the IC50 (HL60) was 0.894 µg/mL (≈ 2.33 µM), the IC50 (CCRF-CFM) was 3.19 µg/mL (≈ 8.3 µM) and the IC50 (SKBR3 [4]) was 0.48 µg/mL (≈ 1.25 µM). The pIC50 [5] was 8.82.
